From patent US11034674B2, “Methods of treating inflammation or neuropathic pain” (H. Lundbeck A/S, priority 2015, dated 2021) come the findings set out here.

Data set [1] is described as follows: Phase 1 single- and multiple-dose study: safety and tolerability. The data set is classed as in vivo, human. As to the method:
(§1) General Design and Methodology: The purpose of this study is to assess the initial safety, tolerability, pharmacokinetics, and pharmacodynamics of Compound 1 (administered as Capsules of the hydrochloride salt of Compound 1) in healthy adults. […] Data from this study is used to select doses and dose regimens for subsequent clinical studies.
In Part 2, Panels are dosed sequentially.

A short description of data set [2]: Phase 1 single- and multiple-dose study: plasma pharmacokinetics. Type of data set: in vivo. The conditions noted are these: human, po, fasted; for AUC(0-inf): read-out: AUCinf (mean); for half-life: read-out: T1/2 (median) (converted).
Source text: as §1
There is a minimum 72-hour period between administration of study drug in Panels A and B. In addition, there is a minimum 2-week washout between Panel B Period 2 and Panel A Period 3 in order to evaluate available preliminary pharmacokinetic data along with safety and tolerability data from the preceding doses before proceeding with dosing in Periods 3 and 4. All doses are administered orally, together with approximately 240 mL of water. Water is otherwise restricted from 1 hour prior to, and for 1 hour after administration of study drug. In each treatment period, with the exception of Panel A Period 4 (food effect treatment period); study drug is administered after an overnight fast (for approximately 8 hours).
The allocation schedule for Periods 2 and 4 (fasted versus fed) are the same such that the same subjects receive active drug or matching placebo in the respective treatment periods.
PK: Descriptive statistics are provided by treatment (Part 1) and by treatment and day (Part 2). Minimum, median, maximum and CV are provided for all PK parameters. Arithmetic mean and standard deviation based on the raw scale are provided for AUC and Cmax. In addition, the percent CV of AUC and Cmax is also provided and calculated according to the following formula: 100×sqrt(exp(s2)−1), where s2 is the observed variance on the natural log-scale. Harmonic mean and jack-knife SD is provided for half-life. Time to steady-state, and evaluation of PK linearity are evaluated in an exploratory fashion.

The subject of data set [3] is 2-AG. The data set is described as follows: Mouse brain 2-AG concentrations after PO dose. To be noted: single-dose PO.
The next data set deals with MGLL (Canis lupus familiaris, UniProt A0A8I3PC77). The experiment in a line: biochemical. As to the method: In vitro potency was determined using activity-based protein profiling (ABPP) which is a functional proteomic technology that uses chemical probes to covalently modify enzyme active sites in an activity-dependent manner (e.g., only catalytically active enzymes will react and become labeled with the ABPP probe). Identification of the proteins that were labeled by the probes was accomplished using polyacrylamide gel electrophoresis or mass spectrometry.

Data set [4] relates to 2-AG. The data set is described as follows: 2-AG and anandamide concentrations in rat tissues and plasma after oral dose. Type of data set: in vivo. The source says: MGLL target engagement inhibits the hydrolysis of 2-AG, elevating tissue 2-AG concentrations, which can be measured in rodent tissues and fluids by MS. Elevation of 2-AG results in enhanced cannabinoid receptor signaling and physiological responses.
Inhibition of MGLL causes accumulation of 2-AG in the rodent brain and periphery.

The nature of another data set: in vivo. To be noted: rat, po, 0.5 mg/kg.
The test system of data set [5] is 2-AG. The data set is described as follows: Rat plasma 2-AG levels after single PO dose (LC-MS/MS). The data set is classed as in vivo. To be noted: single PO doses up to 30 mg/kg, 4 h. As to the method: […]. MGLL activity was assessed by ABPP analysis in PBMC lysates and plasma 2-AG concentrations were measured by liquid chromatography tandem mass spectrometry (LC-MS/MS).

A further data set concerns formalin-challenged rats. The data set is described as follows: Rat formalin paw test.
Where [6] appears, read: Panel C (10 mg QD×14 days) or Panel D (20 mg QD×14 days).
Where [7] appears, read: 100 mg, single oral dose 100 mg, Panel A, Period 3 (A3).
[8] abbreviates: 100 mg, single oral dose 100 mg, Panel B, Period 4 (B4).
Setting [9] is: 200 mg, single oral dose 200 mg.

Where a name gives a salt, the structure may show the parent alone. Read-outs that look alike come from different tables or passages of the source.

MGLL, sequence (A0A8I3PC77 1-304): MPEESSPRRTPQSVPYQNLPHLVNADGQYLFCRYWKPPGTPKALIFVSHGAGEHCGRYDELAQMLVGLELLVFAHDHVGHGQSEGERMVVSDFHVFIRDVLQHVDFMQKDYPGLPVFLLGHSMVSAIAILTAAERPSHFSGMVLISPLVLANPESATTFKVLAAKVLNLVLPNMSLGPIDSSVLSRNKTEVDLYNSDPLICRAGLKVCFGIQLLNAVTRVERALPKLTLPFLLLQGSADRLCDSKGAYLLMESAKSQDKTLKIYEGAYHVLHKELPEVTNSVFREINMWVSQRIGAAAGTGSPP

As to `O=C(OC(C(F)(F)F)C(F)(F)F)N1CCN(Cc2ccc(C(F)(F)F)cc2N2CCCC2)CC1` [Compound 1 HCl, 1,1,1,3,3,3-hexafluoropropan-2-yl 4-(2-(pyrrolidin-1-yl)-4-(trifluoromethyl)benzyl)piperazine-1-carboxylate], in data set [1] (setting [6]), the “adverse events leading to discontinuation” value is on record as “no adverse events leading to the discontinuation of any subjects” and the “changes in vital signs, laboratory test values, or ECGs” value is on record as “no clinically significant changes”. Further, the “vital sign, safety laboratory, or electrocardiographic findings” value in data set [1] (healthy male subjects, fasting state, single oral doses up to 200 mg) is recorded as “not associated with any vital sign, safety laboratory, or electrocardiographic findings of note”.
For `O=C(OC(C(F)(F)F)C(F)(F)F)N1CCN(Cc2ccc(C(F)(F)F)cc2N2CCCC2)CC1` [Compound 1, 1,1,1,3,3,3-hexafluoropropan-2-yl 4-(2-(pyrrolidin-1-yl)-4-(trifluoromethyl)benzyl)piperazine-1-carboxylate], the Cmax is 2.9 ng/mL in data set [2] (2 mg, single oral dose 2 mg); 10.2 ng/mL in data set [2] (6 mg, single oral dose 6 mg); 23.5 ng/mL in data set [2] (18 mg, single oral dose 18 mg); 59.8 ng/mL in data set [2] (50 mg, single oral dose 50 mg); 45.7 ng/mL in data set [2] (setting [7]); 76 ng/mL in data set [2] (setting [8]). In data set [2] (setting [9]), the highest level (Cmax) was 109 ng/mL. Moreover, the Tmax was found to be 1.5 h in data set [2] (2 mg, single oral dose 2 mg); 1.67 h in data set [2] (6 mg, single oral dose 6 mg); 2 h in data set [2] (18 mg, single oral dose 18 mg); 1.8 h in data set [2] (50 mg, single oral dose 50 mg); 3.17 h in data set [2] (setting [7]); 1.83 h in data set [2] (setting [8]). Besides, in data set [2] (setting [9]), the Tmax is 3 h. Further, the AUC(0-inf) turned out to be 15.9 ng·h/mL in data set [2] (2 mg, single oral dose 2 mg); 47 ng·h/mL in data set [2] (6 mg, single oral dose 6 mg); 109 ng·h/mL in data set [2] (18 mg, single oral dose 18 mg); 296 ng·h/mL in data set [2] (50 mg, single oral dose 50 mg); 289 ng·h/mL in data set [2] (setting [7]); 512 ng·h/mL in data set [2] (setting [8]). Also, the AUC(0-inf) in data set [2] (setting [9]) is 766 ng·h/mL. Further, the half-life in data set [2] (2 mg, single oral dose 2 mg) was 1.51 h; in data set [2] (6 mg, single oral dose 6 mg), 2.23 h; in data set [2] (18 mg, single oral dose 18 mg), 3.02 h; in data set [2] (50 mg, single oral dose 50 mg) it was 3.44 h; in data set [2] (setting [7]) it was 5.82 h; in data set [2] (setting [8]), 3.76 h. Moreover, in data set [2] (setting [9]), the half-life was 3.61 h. Further, the “increase of brain 2-AG concentrations” value in the data set with 2-AG [3] is recorded as “up to 30 fold”. Further, the IC50 against MGLL (MGLL IC50, Dog Prefrontal Cortex, 30 min pre-incubation at 37° C., mean ± SEM, n = 3) is 12 ± 2 nM; against MGLL (MGLL IC50, dog MGLL, summary statement for all species), less than 30 nM. Moreover, in the data set with 2-AG [4] (rat formalin model, 0.5 mg/kg PO), the “elevation in brain 2-AG concentrations at the Phase 2 ED50” value was “approximately 3 fold”. Besides, the “brain levels of the endocannabinoid anandamide” value in the data set on 2-AG [4] (rat, single oral doses) was “not elevated”. Also, in the data set with 2-AG [4] (rat, single oral doses), the “increase of 2-AG concentration in plasma” value is listed as 7 fold. Moreover, the ED50 in the data set on 2-AG [4] (rat, single oral doses up to 30 mg/kg, 4 hours, read-out: ED50 for increase of brain 2-AG concentrations (average)) was 1.3 mg/kg. The concentration at 4 h in the data set “in vivo” (blood) was 7 nM; in the data set “in vivo” (brain), 5 nM. Moreover, the “increase of plasma 2-AG levels” value in the data set with 2-AG [5] was “up to 7 fold”. Moreover, the “effect of single and repeated administration on pain behaviors” value in the data set on formalin-challenged rats (1 mg/kg, single vs 5 days QD, n=10, repeat dose group not statistically different from vehicle) is reported as “numerically reduced pain behaviors to a similar extent”. Besides, the “ED50 for exposure associated with efficacy” value in the data set with formalin-challenged rats (rat formalin nocifensive model) amounted to 0.4 µM·h. Also, the “overt behavioral or locomotor perturbations” value with formalin-challenged rats (rats, at the ED50 dose and at oral doses 20-fold higher) is on record as “not apparent”. Also, the “Phase 2 ED50, paw licking behavior” value in the data set with formalin-challenged rats (single dose PO, 4 hours pre-test, n=10) is listed as 0.5 mg/kg. Moreover, the “effect on nociception in formalin-challenged rats” value with formalin-challenged rats (single dose up to 10 mg/kg PO, 4 hours pre-test, early (Phase 1) and delayed (Phase 2) phases) is recorded as “dose-dependent antinociceptive effects”.

What is called Cmax is the highest concentration seen after dosing. A word on the Tmax: it is the time at which the peak concentration occurs. In general, IC50 refers to the concentration at which inhibition is half-maximal.
